Some results are limits rather than exact numbers.

CC50, GI50 and IC50 data for one molecule are collected here from article PMC8591201, “Anti-Tumor Activity of AZD4547 Against NTRK1 Fusion Positive Cancer Cells Through Inhibition of NTRKs” (Frontiers in Oncology, 2021).

One data set in a line: in vitro. As to conditions: mouse, parental ba/f3 cells; read-out: AZD4547 parental. On the set-up: CellTiter-Glo viability of parental Ba/F3 cells, counter-screen. The protocol: To obtain the GI50 value of a substance, cell viability was measured using MTT (G4000, Promega, USA) for KM12(Luc) cell and Cell titer glo (G7572, Promega, USA) for other cell lines. For adherent cells, cells were seeded at 5,000 cells/well in a 96-well plate and treated with a substance one day after cell seeding. For suspension cells, 10,000 cells/well were seeded and the substance was treated after 4 h stabilization of cells. The substance was treated at 10 points of 1:3 serial dilution (0–100 µmol/L) for 72 h. For MTT assay, 15 µL dye solution was added to each well and incubated 4 h at 37°C. 100 µL of solubilization solution was added and followed 1 hr incubation. Absorbance at 570 nm of each well was recorded using EnVision microplate reader (Perkin Elmer). For Cell titer glo assay, Cell titer glo reagent was treated in each well and measured the luminescence by EnVision microplate reader (Perkin Elmer). Viable cells in each well were normalized by using 0.5% DMSO-treated wells (100%). The inhibitor dose−response curve was fitted and GI50 values were calculated using Prism 7.0 software (GraphPad). All assays were performed in duplicate and the standard deviation (SD) was determined from two independent experiments. […] Cell viability after 72 h exposure to the indicated inhibitors, determined by using a cell titer glo assay in duplicate mode. […]

Another data set concerns T98G. Kind of data set: cells. Also noted: Anti-proliferation, 10-point dose response, CellTiter-Glo luminescence (MTT stated for KM12(Luc)), GI50 fitted in Prism. As to conditions: Homo sapiens, T98G, 72 h, read-out: GI50 (µM) a.
The next data set has as its system U-87-MG. Kind of data set: cells. On the set-up: Anti-proliferation, 10-point dose response, CellTiter-Glo luminescence (MTT stated for KM12(Luc)), GI50 fitted in Prism. As to conditions: Homo sapiens, U-87 MG, 72 h, read-out: GI50 (µM) a.
In the next data set the test system is DLD-1. Nature of the data set: cells. On the set-up: Anti-proliferation, 10-point dose response, CellTiter-Glo luminescence (MTT stated for KM12(Luc)), GI50 fitted in Prism. As to conditions: Homo sapiens, DLD-1, 72 h, read-out: GI50 (µM) a.
Another data set has as its system U937. Kind of data set: cells. On the set-up: Anti-proliferation, 10-point dose response, CellTiter-Glo luminescence (MTT stated for KM12(Luc)), GI50 fitted in Prism. As to conditions: Homo sapiens, U-937, 72 h, read-out: GI50 (µM) a.
For another data set, the target named is T1, TRKB (Homo sapiens, UniProt Q16620).
T1 construct: gene NTRK2
Nature of the data set: radiometric biochemical kinase assay.

The next data set deals with T2, TRKA (Homo sapiens, UniProt P04629).
T2 construct: gene NTRK1
Kind of data set: radiometric biochemical kinase assay.

The target in another data set is T3, TRKC (Homo sapiens, UniProt Q16288).
T3 construct: gene NTRK3
Nature of the data set: radiometric biochemical kinase assay.

T1 sequence (Q16620 32-822): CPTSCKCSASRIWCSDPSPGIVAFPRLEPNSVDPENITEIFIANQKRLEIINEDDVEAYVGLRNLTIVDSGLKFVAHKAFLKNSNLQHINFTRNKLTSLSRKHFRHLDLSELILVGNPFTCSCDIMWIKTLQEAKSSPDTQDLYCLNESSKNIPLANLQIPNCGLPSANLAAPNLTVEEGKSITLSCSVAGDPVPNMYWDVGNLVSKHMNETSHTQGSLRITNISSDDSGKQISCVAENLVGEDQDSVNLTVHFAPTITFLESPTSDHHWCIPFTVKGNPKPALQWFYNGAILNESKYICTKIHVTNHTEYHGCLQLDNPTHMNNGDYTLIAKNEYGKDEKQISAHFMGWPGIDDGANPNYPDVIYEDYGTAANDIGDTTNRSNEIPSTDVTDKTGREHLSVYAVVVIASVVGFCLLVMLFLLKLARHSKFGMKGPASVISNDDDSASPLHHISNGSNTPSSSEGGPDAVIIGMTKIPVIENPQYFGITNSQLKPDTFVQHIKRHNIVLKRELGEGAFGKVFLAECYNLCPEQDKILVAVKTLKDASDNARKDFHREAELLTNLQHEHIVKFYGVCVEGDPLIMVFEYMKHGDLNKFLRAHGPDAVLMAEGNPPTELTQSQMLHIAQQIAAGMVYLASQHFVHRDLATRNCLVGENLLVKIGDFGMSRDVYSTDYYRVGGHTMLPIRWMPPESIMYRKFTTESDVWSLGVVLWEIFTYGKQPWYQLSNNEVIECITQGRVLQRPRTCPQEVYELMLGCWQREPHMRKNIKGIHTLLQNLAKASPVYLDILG
T2 sequence (P04629 33-796): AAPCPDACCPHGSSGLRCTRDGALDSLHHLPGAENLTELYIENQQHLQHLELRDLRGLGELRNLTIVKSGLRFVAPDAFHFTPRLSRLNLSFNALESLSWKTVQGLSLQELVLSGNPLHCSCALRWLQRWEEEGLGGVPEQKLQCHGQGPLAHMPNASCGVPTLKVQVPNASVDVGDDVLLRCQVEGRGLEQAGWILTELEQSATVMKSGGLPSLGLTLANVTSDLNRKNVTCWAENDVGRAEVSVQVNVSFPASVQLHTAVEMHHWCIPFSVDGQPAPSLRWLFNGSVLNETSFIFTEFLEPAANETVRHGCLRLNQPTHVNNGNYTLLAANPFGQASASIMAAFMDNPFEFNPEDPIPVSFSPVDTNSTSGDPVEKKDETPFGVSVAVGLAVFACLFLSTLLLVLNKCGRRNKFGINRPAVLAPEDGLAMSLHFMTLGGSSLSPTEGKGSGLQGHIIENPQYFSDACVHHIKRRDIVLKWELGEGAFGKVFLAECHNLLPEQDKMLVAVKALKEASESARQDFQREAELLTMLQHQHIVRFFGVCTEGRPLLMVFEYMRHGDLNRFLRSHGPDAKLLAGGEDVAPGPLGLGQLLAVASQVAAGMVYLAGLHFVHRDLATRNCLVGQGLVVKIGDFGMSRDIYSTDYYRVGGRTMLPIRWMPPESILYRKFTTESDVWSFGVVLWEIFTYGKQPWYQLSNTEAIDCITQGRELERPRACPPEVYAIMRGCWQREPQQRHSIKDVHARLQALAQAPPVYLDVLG
T3 sequence (Q16288 32-839): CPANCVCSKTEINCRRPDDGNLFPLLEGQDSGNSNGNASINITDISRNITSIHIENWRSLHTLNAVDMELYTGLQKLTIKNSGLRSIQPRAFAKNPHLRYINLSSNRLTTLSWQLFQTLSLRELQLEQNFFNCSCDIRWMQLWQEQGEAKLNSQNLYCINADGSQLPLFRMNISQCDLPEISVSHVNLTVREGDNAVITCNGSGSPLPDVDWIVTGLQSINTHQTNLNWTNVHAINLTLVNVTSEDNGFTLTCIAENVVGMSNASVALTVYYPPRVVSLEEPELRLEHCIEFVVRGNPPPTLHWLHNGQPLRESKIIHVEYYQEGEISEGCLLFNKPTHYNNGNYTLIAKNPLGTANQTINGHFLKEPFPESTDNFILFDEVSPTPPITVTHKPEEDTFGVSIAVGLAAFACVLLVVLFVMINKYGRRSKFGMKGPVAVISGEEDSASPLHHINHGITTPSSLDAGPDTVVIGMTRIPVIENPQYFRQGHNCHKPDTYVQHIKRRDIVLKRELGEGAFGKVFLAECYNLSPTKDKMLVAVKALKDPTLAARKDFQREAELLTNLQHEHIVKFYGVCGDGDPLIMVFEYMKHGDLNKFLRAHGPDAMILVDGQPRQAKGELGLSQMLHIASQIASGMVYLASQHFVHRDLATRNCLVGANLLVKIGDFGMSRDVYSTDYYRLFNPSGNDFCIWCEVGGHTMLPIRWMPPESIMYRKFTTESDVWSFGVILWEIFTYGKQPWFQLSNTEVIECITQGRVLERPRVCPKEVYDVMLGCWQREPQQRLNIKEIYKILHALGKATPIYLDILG

Broadly, the GI50 is the concentration giving 50% growth inhibition. The term IC50 denotes the midpoint of a concentration-inhibition curve. The low end stands for greater potency, the high end for weaker potency. For `COc1cc(CCc2cc(NC(=O)c3ccc(N4C[C@@H](C)N[C@@H](C)C4)cc3)n[nH]2)cc(OC)c1` [AZD4547], the CC50 at 72 h in the data set “in vitro” is above 2 µM. In addition, the GI50 worked out at 5.21 µM with T98G, 8.94 µM in the data set on U-87-MG, 27.5 µM in the data set on DLD-1 and 12.2 µM in the data set with U937. Also, the half-maximal inhibitory concentration (IC50) worked out at 0.0076 µM against TRKB, 0.0088 µM on TRKA and 0.001 µM against TRKC.
